Test results: patent US9006232B2, “Pyrimidone derivatives” (Mitsubishi Tanabe Pharma Corporation, priority 2009, dated 2015)
Where a name gives a salt, the structure may show the parent alone.

Biological target: bovine cerebral TPK1 (Bos taurus, UniProt A0A059UE90)
Experiment: Inhibitory activity against P-GS1 phosphorylation by bovine cerebral TPK1
Type: biochemical
Conditions: not given
Experimental: Inhibitory Activity of the Medicament of the Present Invention Against P-GS1 Phosphorylation by Bovine Cerebral TPK1 […] The phosphorylation was started by adding ATP, and the reaction was conducted at 25° C. for 2 hours, and then stopped by adding 21% perchloric acid on ice cooling. The reaction mixture was centrifuged at 12,000 rpm for 5 minutes and adsorbed on P81 paper (Whatmann), and then the paper was washed four times with 75 mM phosphoric acid, three times with water and once with acetone. The paper was dried, and the residual radioactivity was measured using a liquid scintillation counter.

bovine cerebral TPK1, sequence (A0A059UE90 1-419): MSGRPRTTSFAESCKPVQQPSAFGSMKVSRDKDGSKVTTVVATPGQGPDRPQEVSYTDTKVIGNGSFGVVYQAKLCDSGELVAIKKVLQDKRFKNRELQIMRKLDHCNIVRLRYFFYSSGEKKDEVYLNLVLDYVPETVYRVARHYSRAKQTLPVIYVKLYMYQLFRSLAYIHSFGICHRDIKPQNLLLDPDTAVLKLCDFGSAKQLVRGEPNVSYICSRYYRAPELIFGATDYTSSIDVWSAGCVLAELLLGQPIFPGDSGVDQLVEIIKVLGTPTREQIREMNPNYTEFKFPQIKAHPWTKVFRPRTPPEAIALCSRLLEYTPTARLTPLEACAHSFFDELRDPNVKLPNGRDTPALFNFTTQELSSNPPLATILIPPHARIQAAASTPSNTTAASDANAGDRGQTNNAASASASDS

Compound	IC50 [nM]
Cn1c(O[C@H]2C[C@H]3CC[C@@H](C2)N3)nc(-c2ccncn2)cc1=O [Compound No. 2.101, endo-2-(8-Aza-bicyclo[3.2.1]oct-3-yloxy)-1-methyl-1H-[4,4′] bipyrimidinyl-6-one]	115 to 342

Same assay, conditions: P-GS1 phosphorylation, 41.7 μM [γ-32P] ATP, 25° C., 2 hours; read-out: IC50

IC50 [nM]	Compound
43.1	Cn1c(OC[C@H]2CCCN2c2ccc(F)cc2)nc(-c2ccncc2F)cc1=O [2.203, 2-[(2R)-1-(4-Fluoro-phenyl)pyrrolidin-2-ylmethoxy]-6-(3-fluoro-pyridin-4-yl)-3-methyl-3H-pyrimidin-4-one]
37.6	Cn1c(OC[C@@H]2CCCN2c2ccc(F)cc2)nc(-c2ccncn2)cc1=O [2.204, 2-[(2S)-1-(4-Fluoro-phenyl)pyrrolidin-2-ylmethoxy]-1-methyl-1H-[4,4′]bipyrimidinyl-6-one]
18.4	Cn1c(OC[C@@H]2CCCN2c2ccc(F)cc2)nc(-c2ccncc2F)cc1=O [2.205, 2-[(2S)-1-(4-Fluoro-phenyl)pyrrolidin-2-ylmethoxy]-6-(3-fluoro-pyridin-4-yl)-3-methyl-3H-pyrimidin-4-one]
941	Cn1c(OC[C@H]2CCN(c3ccccc3)C2)nc(-c2ccncn2)cc1=O [2.209, 1-Methyl-2-[(3S)-1-phenyl-pyrrolidin-3-ylmethoxy]-1H-[4,4′] bipyrimidinyl-6-one]
134	Cn1c(OC[C@H]2CCN(c3ccccc3)C2)nc(-c2ccncc2F)cc1=O [2.210, 6-(3-Fluoro-pyridin-4-yl)-3-methyl-2-[(3S)-1-phenyl-pyrrolidin-3-ylmethoxy]-3H-pyrimidin-4-one]
160	Cn1c(OCCc2ccccc2)nc(-c2ccncn2)cc1=O [2.302, 1-Methyl-2-phenethyloxy-1H-[4,4′]bipyrimidinyl-6-one]
9.4	Cn1c(OC2CCCN(c3ccccc3)C2)nc(-c2ccncn2)cc1=O (stereo not shown) [Compound No. 1.101, 1-Methyl-2-(1-phenyl-piperidin-3-yloxy)-1H-[4,4′]bipyrimidinyl-6-one]
28.2	COC(=O)N1CCCC(Oc2nc(-c3ccncn3)cc(=O)n2C)C1 (stereo not shown) [Compound No. 1.102, Methyl 3-(1-methyl-6-oxo-1,6-dihydro-[4,4′]bipyrimidinyl-2-yloxy) piperidine-1-carboxylate]
19.1	Cn1c(OC2CCN(c3ccc(CN4CCN(C(=O)OC(C)(C)C)CC4)cc3)CC2)nc(-c2ccncn2)cc1=O [Compound No. 1.201, tert-Butyl 4-{4-[4-(1-methyl-6-oxo-1,6-dihydro-[4,4′]bipyrimidinyl-2-yloxy)piperidin-1-yl]benzyl}piperazine-1-carboxylate]
13	Cn1c(OC2CCN(c3ccc(CN4CCNCC4)cc3)CC2)nc(-c2ccncn2)cc1=O [Compound No. 1.202, 1-Methyl-2-[1-(4-piperazin-1-ylmethyl-phenyl)piperidin-4-yloxy]-1H-[4,4′]bipyrimidinyl-6-one]
6.4	CN1CCN(Cc2ccc(N3CCC(Oc4nc(-c5ccncn5)cc(=O)n4C)CC3)cc2)CC1 [Compound No. 1.203, 1-Methyl-2-{1-[4-(4-methyl-piperazin-1-ylmethyl)phenyl]piperidin-4-yloxy}-1H-[4,4′] bipyrimidinyl-6-one]
61.1	Cn1c(OC2CCN(c3ccccc3CN3CCOCC3)CC2)nc(-c2ccncn2)cc1=O [Compound No. 1.301, 1-Methyl-2-[1-(2-morpholin-4-ylmethyl-phenyl)piperidin-4-yloxy]-1H-[4,4′]bipyrimidinyl-6-one]
43.7	Cn1c(OC2CCN(c3ccc4c(c3)COC(=O)N4)CC2)nc(-c2ccncn2)cc1=O [Compound No. 1.401, 1-Methyl-2-{[1-(2-oxo-1,4-dhydro-2H-3,1-benzoxazin-6-yl)piperidin-4-yl]oxy}-1H-[4,4′] bipyrimidinyl-6-one]
69	Cn1c(OC2CCN(CCC3CCNCC3)CC2)nc(-c2ccncn2)cc1=O [Compound No. 1.501, 1-Methyl-2-[1-(2-piperidin-4-yl-ethyl)piperidin-4-yloxy]-1H-[4,4′] bipyrimidinyl-6-one]
33.9	Cn1c(OC2CCN(CCC3CCN(Cc4ccccc4)CC3)CC2)nc(-c2ccncn2)cc1=O [Compound No. 1.502, 2-{1-[2-(1-Benzyl-piperidin-4-yl)ethyl]piperidin-4-yloxy}-1-methyl-1H-[4,4′]bipyrimidinyl-6-one]
39.8	CN(C)Cc1ccc(C(=O)N2CCC(Oc3nc(-c4ccncn4)cc(=O)n3C)CC2)cc1 [Compound No. 1.601, 2-[1-(4-Dimethylaminomethyl-benzoyl)piperidin-4-yloxy]-1-methyl-1H-[4,4′]bipyrimidinyl-6-one]

IC50 [nM]	Compound
30.3	Cn1c(OC2CCCN(c3ccc(C#N)cc3)CC2)nc(-c2ccncn2)cc1=O (stereo not shown) [Compound No. 1.701, 4-[4-(1-Methyl-6-oxo-1,6-dihydro-[4,4′]bipyrimidinyl-2-yloxy)azepan-1-yl]benzonitrile]
58.1	CC1CCCCC1Oc1nc(-c2ccncn2)cc(=O)n1C (stereo not shown) [Compound No. 1.801, 1-Methyl-2-(2-methyl-cyclohexyloxy)-1H-[4,4′] bipyrimidinyl-6-one]
115	Cn1c(O[C@H]2CC[C@H](c3ccc(CO)cc3)CC2)nc(-c2ccncn2)cc1=O [Compound No. 1.901, 2-[trans-4-(4-Hydroxymethyl-phenyl)cyclohexyloxy]-1-methyl-1H-[4,4′]bipyrimidinyl-6-one]
124	Cn1c(O[C@H]2CC[C@@H](c3ccc(CO)cc3)CC2)nc(-c2ccncn2)cc1=O [Compound No. 1.902, 2-[cis-4-(4-Hydroxymethyl-phenyl)cyclohexyloxy]-1-methyl-1H-[4,4′]bipyrimidinyl-6-one]
7.8	CN1CCN(Cc2ccc([C@H]3CC[C@H](Oc4nc(-c5ccncn5)cc(=O)n4C)CC3)cc2)CC1 [Compound No. 1.903, 1-Methyl-2-{trans-4-[4-(4-methyl-piperazin-1-ylmethyl)phenyl]cyclohexyloxy}-1H-[4,4′] bipyrimidinyl-6-one]
30.3	CN1CCN(Cc2ccc([C@H]3CC[C@@H](Oc4nc(-c5ccncn5)cc(=O)n4C)CC3)cc2)CC1 [Compound No. 1.904, 1-Methyl-2-{cis-4-[4-(4-methyl-piperazin-1-ylmethyl)phenyl]cyclohexyloxy}-1H-[4,4′] bipyrimidinyl-6-one]
429	CCCCCCc1ccc(Oc2nc(-c3ccncn3)cc(=O)n2C)cc1 [Compound No. 2.001, 2-(4-Hexylphenoxy)-1-methyl-1H[4,4′]bipyrimidinyl-6one]
56.4	Cn1c(OC[C@H]2CCCN2C(=O)Oc2ccccc2)nc(-c2ccncn2)cc1=O [Compound No. 2.201, Phenyl (2R)-2-(1-methyl-6-oxo-1,6-dihydro-[4,4′]bipyrimidinyl-2-yloxymethyl)pyrrolidine-1-carboxylate]
73.2	Cn1c(OC[C@H]2CCN(c3ccsc3)C2)nc(-c2ccncc2F)cc1=O [Compound No. 2.206, 6-(3-Fluoro-pyridin-4-yl)-3-methyl-2-[(3S)-1-(thiophen-3-yl)pyrrolidin-3-ylmethoxy]-3H-pyrimidin-4-one]
307	Cn1c(OC[C@H]2CCN(c3ccsc3)C2)nc(-c2ccncn2)cc1=O [Compound No. 2.207, 1-Methyl-2-[(3S)-1-(thiophen-3-yl)pyrrolidin-3-ylmethoxy]-1H-[4,4]′bipyrimidinyl-6-one]
108	Cn1c(OC[C@@H]2CCN(c3ccsc3)C2)nc(-c2ccncc2F)cc1=O [Compound No. 2.208, 6-(3-Fluoro-pyridin-4-yl)-3-methyl-2-[(3R)-1-(thiophen-3-yl)pyrrolidin-3-ylmethoxy]-3H-pyrimidin-4-one]
658	Cn1c(OC[C@@H]2CCN(c3ccccc3)C2)nc(-c2ccncc2F)cc1=O [Compound No. 2.211, 6-(3-Fluoro-pyridin-4-yl)-3-methyl-2-[(3R)-1-phenyl-pyrrolidin-3-ylmethoxy]-3H-pyrimidin-4-one]
110	Cn1c(OCCc2ccc(CN3CCCCC3)cc2)nc(-c2ccncc2)cc1=O [Compound No. 2.401, 3-Methyl-2-[2-(4-piperidin-1-ylmethyl-phenyl)ethoxy]-6-pyridin-4-yl-3H-pyrimidin-4-one dihydrochioride]
386	Cn1c(OCC2(c3ccccc3)OCCO2)nc(-c2ccncn2)cc1=O [Compound No. 2.501, 1-Methyl-2-(2-phenyl-[1,3]dioxolan-2-ylmethoxy)-1H-[4,4′] bipyrimidinyl-6-one]
349	Cn1c(OCC(OC2CCCCO2)c2ccccc2)nc(-c2ccncn2)cc1=O (stereo not shown) [Compound No. 2.502, 1-Methyl-2-[2-phenyl-2-(tetrahydro-pyran-2-yloxy)ethoxy]-1H-[4,4′]bipyrimidinyl-6-one]

Compound	IC50 [nM]
Cn1c(O[C@H]2C[C@H]3CC[C@@H](C2)N3c2ccc(F)cc2)nc(-c2ccncn2)cc1=O [Compound No. 2.102, endo-2-[8-(4-Fluoro-phenyl)-8-aza-bicyclo[3.2.1]oct-3-yloxy]-1-methyl-1H-[4,4′]bipyrimidinyl-6-one]	236
CN(C)Cc1ccc(CCOc2nc(-c3ccncc3)cc(=O)n2C)cc1 [Compound No. 2.402, 2-[2-(4-Dimethylaminomethyl-phenyl)ethoxy]-3-methyl-6-pyridin-4-yl-3H-pyrimidin-4-one dihydrochloride]	150
